Results published in patent US20090291887A1, “Proteins of the SDF-1-Family for the Manufacturing of a Medicament” (priority 2006, published 2009).

Legend:
[1] = system: CST-lesioned adult rats; assay: Rat model of spinal cord transection, CST axon sprouting (BDA tracing); format: in vivo
Experimental: The dura was opened at the thoracic level, and the vertebrae Th8 and Th9 were removed. The dorsal CST, dorsal columns and central canal were transected using a Scouten wire knife (Bilaney, Germany). Following the surgery, a silicon tube catheter was placed in the subdural space at 1 mm caudal to the lesion, and was connected to a mini-osmotic pump (Alzet) containing 200 μl of either SDF-1a/CXCL12 (10 μM in PBS) or Tris buffer. After the pump was fixed in place, the dura and overlying tissue were sutured, and the animals were allowed to recover. Application of either SDF-1a/CXCL12 or Tris buffer was carried out at a flow rate of 1 μl/h over a time period of 7 days. One week after lesion, the pump was removed in a second surgery.
A total volume of 2.3 μl biotinylated dextrane amine, BDA, (10%, Molecular Probes) was stereotactically injected into both hemispheres of the sensorimotor cortex. […] Briefly, animals were transcardially perfused with 40% PFA. The spinal cord was removed, postfixed in 4% PFA, and cryoprotected in sucrose (30%, Sigma) for 3-5 days. Spinal cord samples were shock frozen in methyl butane and cut into 20 μm thick sagittal cryostat slices. Sections were collected onto Histobond coated glass slides (Menzel, Germany). […] Briefly, sections were washed in PBS followed by incubation with avidin-Oregon (1:1000, in PBS) at 4° C. over night. […]

[2] = system: DRG neurons; assay: Myelin-inhibition assay (neurite growth of DRG neurons on laminin/myelin); format: cell-based, rat
Experimental: Spinal neurons from the dorsal root ganglia (DRG) of young rats (day 6 postnatal) were plated in parallel on culture substrates coated with either poly-D-lysine (PDL)/laminin (13 μg/ml) or PDL/laminin (13 μg/ml)+myelin (200 ng/culture). The myelin preparation has been obtained from rat brain by biochemical fractionation and employed as a suspension for coating the culture dishes.
The images shown in FIGS. 1-3 were recorded by immunofluorescence microscopy with PAM (panaxonal marker/neurofilament) antibody, and the visualization was effected by fluorescent dye (Alexa).

[3] = system: Ser-133 phosphorylated CREB in DRG neurons; assay: PhosphoCREB assay; format: cell-based, rat; conditions: P6 DRG neurons; 200 ng/ml; versus untreated cultures (FIG. 5)
Experimental: Determination of Ser-133 phosphorylated CREB was performed on glass coverslips coated with PDL (1 mg/ml, Sigma) and laminin (13 μg/ml, Sigma). Dissociated DRGs were plated at a density of 5×10^4 cells/cm2 and incubated in DMEM containing 10% fetal bovine serum, nerve growth factor-2.5S, penicilline/streptomycine, and 5′-fluoro-2′-desoxyuridine for 24 h. Cells were stimulated by application of either 200 ng/ml SDF-1a/CXCL12 or 6 μM forskolin (Sigma), respectively, for 1-120 min. Samples were fixed with […] and stained for phophoCREB. Nuclei of P6 DRG neurons were stained with DAPI. For quantitative analysis of phosphoCREB-immunoreactivity, 30 pictures per coverslip were taken randomly at 20× magnification, and the number of neurons displaying phosphoCREB-positive nuclei as well as the total number of neurons were determined.

Substance: SDF-1α
- animals that displayed extensive sprouting ([1]; SDF-1a infusion, none out of three Tris buffer-infused rats): Two out of three
- sprouting of BDA-labelled CST axons within the proximal stump ([1]; subdural infusion by mini-osmotic pump, 10 μM, 1 μl/h, 7 days, versus Tris buffer (FIG. 6)): enhanced sprouting
- myelin-associated inhibition of neurite growth ([2]; DRG neurons on PDL/laminin + myelin, SDF-1 Alpha 200 ng/ml (FIG. 3)): essentially neutralized
- neutralization of myelin inhibition, quantitative evaluation ([2]; FIG. 4, dose dependence): dose-dependent neutralization
- myelin-induced inhibition of the neurite growth of DRG neurons in vitro ([2]; concentration of 500 ng of SDF-1/ml): neutralized completely
- proportion of nuclei displaying phosphoCREB-immunoreactivity [3]: significantly increased
